Reference: patent US20240246941A1, “SUBSTITUTED 4-(3-AMINOPROP-1-YL)AMINOQUINOLINE ANALOGS AS MODULATORS OF MELANOMA-ASSOCIATED ANTIGEN 11 UBIQUITIN LIGASE” (ST. JUDE CHILDREN'S RESEARCH HOSPITAL, INC., priority 2020, published 2024)
Read-outs that look alike come from different tables or passages of the source.

Target: interaction between GST-MAGEA11 MHD and FAM-PCF11_4 peptide (MAGE-A11:PCF11) (Homo sapiens (Human), UniProt P43364)
Assay: TR-FRET dose response competition assay for disruption of MAGE-A11:PCF11 binding
Summary of the method: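 Competition TR-FRET at room temperature in 50 mM Tris pH 7.5, 20 mM MgCl2, 0.1 mg/ml BSA, 1 mM DTT: final 5 nM GST-MAGEA11 MHD, 5 nM Tb-anti-GST, 200 nM FAM-PCF11_4, 90 min. Ratio 520/490 nm converted to % inhibition; IC50 from sigmoidal fit.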

[1] = Table 8, representative compounds, read-out: TR-FRET IC50
[2] = Dose response TR-FRET screening of nine scaffold groups against MAGE-A11:PCF11, read-out: consensus IC50
[3] = Table 5, dose response TR-FRET screening of 59 quinoline compounds against MAGE-A11:PCF11, read-out: TR-FRET IC50

Chain of interaction between GST-MAGEA11 MHD and FAM-PCF11_4 peptide (MAGE-A11:PCF11) (P43364 218-429): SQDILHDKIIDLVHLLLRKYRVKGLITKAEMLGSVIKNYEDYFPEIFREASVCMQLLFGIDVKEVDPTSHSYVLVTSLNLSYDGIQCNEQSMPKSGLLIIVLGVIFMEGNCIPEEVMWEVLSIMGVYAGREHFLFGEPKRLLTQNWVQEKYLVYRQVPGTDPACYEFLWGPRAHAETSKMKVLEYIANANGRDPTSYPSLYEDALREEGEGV

Row | Structure (SMILES) | IC50 [2] [µM] | other results
1 | CCc1ccc(CNCCCNc2ccnc3cc(Cl)ccc23)cc1 [SJ000521039] |  | IC50 [1]: 69.9 µM
2 | FC(F)(F)Oc1cccc(CNCCCNc2ccnc3cc(C(F)(F)F)ccc23)c1 [SJ000521045-2] | 69.9 | 
3 | FC(F)(F)Oc1cccc(CNCCCNc2ccnc3cc(C(F)(F)F)ccc23)c1 [SJ000521045] |  | IC50 [1]: 69.9 µM
4 | FC(F)(F)c1cccc(CNCCCNc2ccnc3cc(C(F)(F)F)ccc23)c1 [SJ000521047-1] | 69.9 | 
5 | FC(F)(F)c1cccc(CNCCCNc2ccnc3cc(C(F)(F)F)ccc23)c1 [SJ000521047] |  | IC50 [1]: 69.9 µM
6 | FC(F)(F)c1ccc2c(NCCCNCc3cccc4c3OCO4)ccnc2c1 [SJ000521048-1] | 69.9 | 
7 | FC(F)(F)c1ccc2c(NCCCNCc3cccc4c3OCO4)ccnc2c1 [SJ000521048] |  | IC50 [1]: 69.9 µM
8 | FC(F)(F)c1ccc2c(NCCCNCc3ccccc3C(F)(F)F)ccnc2c1 [SJ000521049-1] | 69.9 | 
9 | FC(F)(F)c1ccc2c(NCCCNCc3ccccc3C(F)(F)F)ccnc2c1 [SJ000521049] |  | IC50 [1]: 69.9 µM
10 | FC(F)(F)Oc1ccc(CNCCCNc2ccnc3cc(C(F)(F)F)ccc23)cc1 [SJ000521050-1] | 69.9 | 
11 | FC(F)(F)Oc1ccc(CNCCCNc2ccnc3cc(C(F)(F)F)ccc23)cc1 [SJ000521050] |  | IC50 [1]: 69.9 µM
12 | COc1cccc(F)c1CNCCCNc1ccnc2cc(C(F)(F)F)ccc12 [SJ000521051-1] | 69.9 | 
13 | COc1cccc(F)c1CNCCCNc1ccnc2cc(C(F)(F)F)ccc12 [SJ000521051] |  | IC50 [1]: 69.9 µM
14 | COc1ccc(F)cc1CNCCCNc1ccnc2cc(C(F)(F)F)ccc12 [SJ000521052-1] | 69.9 | 
15 | COc1ccc(F)cc1CNCCCNc1ccnc2cc(C(F)(F)F)ccc12 [SJ000521052] |  | IC50 [1]: 69.9 µM
16 | FC(F)(F)c1ccc2c(NCCCNCc3ccc4[nH]ccc4c3)ccnc2c1 [SJ000521054-1] | 0.397 | 
17 | FC(F)(F)c1ccc2c(NCCCNCc3cc(Br)cs3)ccnc2c1 [SJ000521056-1] |  | IC50 [3]: > 70 µM
18 | COc1ccc(F)c(CNCCCNc2ccnc3cc(C(F)(F)F)ccc23)c1 [SJ000521058-1] | 69.9 | 
19 | COc1ccc(F)c(CNCCCNc2ccnc3cc(C(F)(F)F)ccc23)c1 [SJ000521058] |  | IC50 [1]: 69.9 µM
20 | Fc1cccc(C(F)(F)F)c1CNCCCNc1ccnc2cc(C(F)(F)F)ccc12 [SJ000521059-1] | 69.9 | 
21 | Fc1cccc(C(F)(F)F)c1CNCCCNc1ccnc2cc(C(F)(F)F)ccc12 [SJ000521059] |  | IC50 [1]: 69.9 µM
22 | FC(F)(F)c1ccc2c(NCCCNCc3cc4ccccc4s3)ccnc2c1 [SJ000521060-1] |  | IC50 [3]: > 70 µM

Row | Structure (SMILES) | IC50 [2] [µM] | other results
23 | FC(F)(F)c1ccc2c(NCCCNCc3csc4ccccc34)ccnc2c1 [SJ000521061-1] |  | IC50 [3]: > 70 µM
24 | COc1ccc(OC(F)(F)F)cc1CNCCCNc1ccnc2cc(C(F)(F)F)ccc12 [SJ000521063-1] | 69.9 | 
25 | COc1ccc(OC(F)(F)F)cc1CNCCCNc1ccnc2cc(C(F)(F)F)ccc12 [SJ000521063] |  | IC50 [1]: 69.9 µM
26 | COc1ccc(C(F)(F)F)cc1CNCCCNc1ccnc2cc(C(F)(F)F)ccc12 [SJ000521064-1] | 69.1 | 
27 | COc1ccc(C(F)(F)F)cc1CNCCCNc1ccnc2cc(C(F)(F)F)ccc12 [SJ000521064] |  | IC50 [1]: 69.1 µM
28 | Fc1cccc(CNCCCNc2ccnc3cc(C(F)(F)F)ccc23)c1 [SJ000521066-1] | 69.9 | 
29 | Fc1cccc(CNCCCNc2ccnc3cc(C(F)(F)F)ccc23)c1 [SJ000521066] |  | IC50 [1]: 69.9 µM
30 | CCc1ccc(CNCCCNc2ccnc3cc(C(F)(F)F)ccc23)cc1 [SJ000521067-1] | 40.9 | 
31 | CCc1ccc(CNCCCNc2ccnc3cc(C(F)(F)F)ccc23)cc1 [SJ000521067] |  | IC50 [1]: 40.9 µM
32 | Fc1ccc(CN(CCCCNc2ccnc3cc(Cl)ccc23)Cc2ccccc2)cc1 [SJ000522725-1] |  | IC50 [3]: > 70 µM
33 | CCCN(CCCNc1c2ccc(Cl)cc2nc2ccc(OC)cc12)Cc1ccc2[nH]ccc2c1 [SJ000522732-2] |  | IC50 [3]: > 70 µM
34 | CCCN(CCCNc1ccnc2cc(Cl)ccc12)Cc1ccc2[nH]ccc2c1 [SJ000522746-2] |  | IC50 [3]: 2.8 µM
35 | CCCN(CCCNc1ccnc2cc(Cl)ccc12)Cc1c(C)cc(C)cc1C [SJ000522749-1] |  | IC50 [3]: > 70 µM
36 | CCCN(CCCNc1ccnc2cc(Cl)ccc12)Cc1ccc(CC)cc1 [SJ000523001-1] |  | IC50 [3]: > 70 µM
37 | CCCN(CCCNc1ccnc2cc(Cl)ccc12)Cc1cc(C(F)(F)F)ccc1OC [SJ000523012-1] |  | IC50 [3]: > 70 µM
38 | CCCN(CCCNc1c2ccc(Cl)cc2nc2ccc(OC)cc12)Cc1c(Cl)ccc(Cl)c1Cl [SJ000523021-1] |  | IC50 [3]: > 70 µM
39 | CCCN(CCCNc1ccnc2cc(Cl)ccc12)Cc1ccc(-c2ccccc2)cc1 [SJ000523039-1] |  | IC50 [3]: > 70 µM
40 | CCCN(CCCNc1ccnc2cc(Cl)ccc12)Cc1ccc2ccccc2c1 [SJ000523040-1] |  | IC50 [3]: > 70 µM
41 | CN(C)c1ccc(CNCCCNc2ccnc3cc(Cl)ccc23)c2ccccc12 [SJ000523054-1] | 69.9 | 
42 | Nc1ccccc1CNCCCNc1ccnc2cc(Cl)ccc12 [SJ000523055-1] | 69.9 | 
43 | Nc1ccccc1CNCCCNc1ccnc2cc(Cl)ccc12 [SJ000523055] |  | IC50 [1]: 69.9 µM
44 | Clc1ccc2c(NCCCNCc3ccc4c(c3)OCO4)ccnc2c1 [SJ000523056-1] | 69.9 | 

Row | Structure (SMILES) | IC50 [2] [µM] | other results
45 | Clc1ccc2c(NCCCNCc3ccc4c(c3)OCO4)ccnc2c1 [SJ000523056] |  | IC50 [1]: 69.9 µM
46 | COc1ccc(CNCCCNc2ccnc3cc(Cl)ccc23)cc1 [SJ000523059-1] | 69.9 | 
47 | COc1ccc(CNCCCNc2ccnc3cc(Cl)ccc23)cc1 [SJ000523059] |  | IC50 [1]: 69.9 µM
48 | Fc1ccccc1CNCCCNc1ccnc2cc(Cl)ccc12 [SJ000523060-1] | 69.9 | 
49 | Fc1ccccc1CNCCCNc1ccnc2cc(Cl)ccc12 [SJ000523060] |  | IC50 [1]: 69.9 µM
50 | Fc1cccc(CNCCCNc2ccnc3cc(Cl)ccc23)c1 [SJ000523061-1] | 69.9 | 
51 | Fc1cccc(CNCCCNc2ccnc3cc(Cl)ccc23)c1 [SJ000523061] |  | IC50 [1]: 69.9 µM
52 | Fc1ccc(CNCCCNc2ccnc3cc(Cl)ccc23)cc1 [SJ000523062-1] | 69.9 | 
53 | Fc1ccc(CNCCCNc2ccnc3cc(Cl)ccc23)cc1 [SJ000523062] |  | IC50 [1]: 69.9 µM
54 | N#Cc1cccc(CNCCCNc2ccnc3cc(Cl)ccc23)c1 [SJ000523063-1] | 69.9 | 
55 | N#Cc1cccc(CNCCCNc2ccnc3cc(Cl)ccc23)c1 [SJ000523063] |  | IC50 [1]: 69.9 µM
56 | Clc1ccc2c(NCCCNCc3ccc(-c4ccccc4)cc3)ccnc2c1 [SJ000523064-1] | 34.9 | 
57 | Clc1ccc2c(NCCCNCc3ccc(-c4ccccc4)cc3)ccnc2c1 [SJ000523064] |  | IC50 [1]: 34.9 µM
58 | Clc1ccc2c(NCCCNCc3ccc4ccccc4c3)ccnc2c1 [SJ000523065-1] | 69.9 | 
59 | Clc1ccc2c(NCCCNCc3ccc4ccccc4c3)ccnc2c1 [SJ000523065] |  | IC50 [1]: 69.9 µM
60 | Cc1cccc(CNCCCNc2ccnc3cc(Cl)ccc23)c1 [SJ000523066-1] | 69.9 | 
61 | Cc1cccc(CNCCCNc2ccnc3cc(Cl)ccc23)c1 [SJ000523066] |  | IC50 [1]: 69.9 µM
62 | COC(=O)c1ccc(CNCCCNc2ccnc3cc(Cl)ccc23)cc1 [SJ000523067-1] | 69.9 | 
63 | COC(=O)c1ccc(CNCCCNc2ccnc3cc(Cl)ccc23)cc1 [SJ000523067] |  | IC50 [1]: 69.9 µM
64 | Clc1cccc(-c2ccc(CNCCCNc3ccnc4cc(Cl)ccc34)o2)c1 [SJ000523069-1] |  | IC50 [3]: > 70 µM
65 | CCCN(CCCNc1ccnc2cc(C(F)(F)F)ccc12)Cc1ccccc1OC [SJ000523072-1] |  | IC50 [3]: > 70 µM
66 | CCCCCCN(CCC)CCCNc1ccnc2cc(C(F)(F)F)ccc12 [SJ000523083-1] |  | IC50 [3]: > 70 µM

Row | Structure (SMILES) | IC50 [2] [µM] | other results
67 | CCCN1C(=O)c2ccccc2NC1c1ccc(Cl)cc1 (stereo not drawn) [SJ000550608-1] | 69.9 | 
68 | CCn1c2ccccc2c2cc(CNC3CCCCC3)ccc21 [SJ000550865-1] | 69.9 | 
69 | CCn1c2ccccc2c2cc(CN3CCCC(O)C3)ccc21 (stereo not drawn) [SJ000550874-1] | 69.9 | 
70 | O=C1c2ccccc2NC(c2ccc(Cl)cc2Cl)N1Cc1ccccc1 (stereo not drawn) [SJ000551164-1] | 69.9 | 
71 | CCCN1C(=O)c2ccccc2NC1c1cc(OC)c(OC)c(OC)c1 (stereo not drawn) [SJ000551165-1] | 69.9 | 
72 | O=C1c2ccccc2NC(c2ccc(Cl)c(Cl)c2)N1Cc1ccccc1 (stereo not drawn) [SJ000551208-1] | 69.9 | 
73 | COc1ccc(C2Nc3ccccc3C(=O)N2Cc2ccccc2)cc1 (stereo not drawn) [SJ000551209-1] | 69.9 | 
74 | CCOc1ccc(N(C(C)=O)C2=C(N)C(=O)c3ccccc3C2=O)cc1 [SJ000558312-2] | 65.7 | 
75 | NC1=C(Nc2ccccc2)C(=O)c2ccccc2C1=O [SJ000562543-1] | 60.8 | 
76 | Cc1ccccc1NC1=C(N)C(=O)c2ccccc2C1=O [SJ000562551-1] | 72.2 | 
77 | Cc1ccc(NC2=C(N)C(=O)c3ccccc3C2=O)cc1 [SJ000562618-1] | 60.6 | 
78 | CCCCCCCCOc1ccc(NC2=C(N)C(=O)c3ccccc3C2=O)cc1 [SJ000562629-1] | 54.8 | 
79 | NC1=C(Nc2ccc(Cl)cc2)C(=O)c2ccccc2C1=O [SJ000562630-1] | 53.8 | 
80 | Cc1cc(C)cc(NC2=C(N)C(=O)c3ccccc3C2=O)c1 [SJ000562641-1] | 55 | 
81 | COc1cc(NCc2ccc3nc(N)nc(N)c3c2C)cc(OC)c1OC [SJ000574313-7] | 9.46 | 
82 | CCCN(CCCNc1ccnc2cc(C(F)(F)F)ccc12)Cc1ccc2[nH]ccc2c1 [SJ000575171-1] |  | IC50 [3]: 33.2 µM
83 | Clc1ccc2c(NCCCNCc3ccc[nH]3)ccnc2c1 [SJ000575192-1] |  | IC50 [3]: 22.8 µM
84 | O=C1c2ccccc2NC(c2ccc(F)cc2F)N1CCCN1CCOCC1 (stereo not drawn) [SJ000795275-1] | 67.8 | 
85 | O=C1c2ccccc2NC(c2ccc(F)c(F)c2)N1CCCN1CCOCC1 (stereo not drawn) [SJ000803757-1] | 58.4 | 
86 | CCCOc1ccc(C2Nc3ccccc3C(=O)N2CCCN2CCOCC2)cc1 (stereo not drawn) [SJ000803758-1] | 72.1 | 
87 | CCOc1ccc(C2Nc3ccccc3C(=O)N2CCCN2CCOCC2)cc1 (stereo not drawn) [SJ000803759-1] | 67.7 | 
